# Reference: patent US20100298141A1, “SUBSTITUTED PYRIDINE N-OXIDE HERBICIDES” (E. I. DU PONT DE NEMOURS AND COMPANY, priority 2007, published 2010)
# Assays:
# common chickweed = assay: Test F preemergence test; assay type: in vivo, Stellaria media; conditions: scale 0 to 100
# Procedure, shortened: (§1)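 Greenhouse screen: test chemical in surfactant-containing non-phytotoxic solvent applied preemergence to sown seeds or postemergence to sugarcane plants; after 14 to 21 days each species scored visually versus controls.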
# common sowthistle = assay: Test F preemergence test; assay type: in vivo, Sonchus oleraceous; conditions: scale 0 to 100
# Procedure, shortened: as §1
# Russian thistle = assay: Test F preemergence test; assay type: in vivo, Salsola kali; conditions: scale 0 to 100
# Text: Seeds of plant species selected from bermudagrass (Cynodon dactylon), Surinam grass (Brachiaria decumbens), large crabgrass (Digitaria sanguinalis), green foxtail (Setaria viridis), goosegrass (Eleusine indica), johnsongrass (Sorghum halepense), kochia (Kochia scoparia), pitted morningglory (Ipomoea lacunosa), purple nutsedge (Cyperus rotundus), common ragweed (Ambrosia elation), mustard (Brassica nigra), guineagrass (Panicum maximum), […] (Paspalum dilatatum), barnyardgrass (Echinochloa crus-galli), southern sandbur (Cenchrus echinatus), common sowthistle (Sonchus oleraceous), prickly […] spinosa), Italian ryegrass (Lolium multiflorum), common purslane (Portulaca oleracea), broadleaf signalgrass (Brachiaria platyphylla), common groundsel (Senecio vulgaris), common chickweed (Stellaria media), Virginia dayflower (Commelina virginica), annual bluegrass (Poa annua), naked crabgrass (Digitaria nuda), […] cochinchinensis), quackgrass (Elytrigia repens), Canada horseweed (Conyza canadensis), field bindweed (Convolvulus arvensis), […] (Bidens bipinnata), common mallow (Malva sylvestris), Russian thistle (Salsola kali), and sugarcane (Saccharum officinarum) were planted and treated preemergence with test chemicals formulated in a non-phytotoxic solvent mixture which included a surfactant. At a different time, sugarcane was treated with postemergence applications of some of the test chemicals formulated in the same manner. Plants were approximately 3- to 4-leaf stage for the postemergence treatments. Treated plants and controls were maintained in a greenhouse for 14 to 21 days, after which time all species were compared to controls and visually evaluated. […] A dash (-) response means no test result.
# green foxtail = assay: Test D preemergence test; assay type: in vivo, Setaria viridis; conditions: scale 0 to 100
# Text: (§2) Seeds of plant species selected from annual bluegrass (Poa annua), blackgrass (Alopecurus myosuroides), downy bromegrass (Bromus tectorum), field violet (Viola arvensis), green foxtail (Setaria viridis), Italian ryegrass (Lolium multiflorum), littleseed canarygrass (Phalaris minor), spring wheat (Triticum aestivum), wild oat (Avena fatua), […]), winter barley (Hordeum vulgare), and winter wheat (Triticum aestivum) were planted and treated preemergence with test chemicals formulated in a non-phytotoxic solvent mixture which included a surfactant. […] A dash (-) response means no test result.
# field sandbur = assay: Test G preemergence test; assay type: in vivo, Cenchrus incertus; conditions: scale 0 to 100
# Canada horseweed = assay: Test F preemergence test; assay type: in vivo, Conyza canadensis; conditions: scale 0 to 100
# Procedure, shortened: as §1
# downy bromegrass = assay: Test D preemergence test; assay type: in vivo, Bromus tectorum; conditions: scale 0 to 100
# Text: as §2
# millet = assay: Test G preemergence test; assay type: in vivo, Panicum miliaceum; conditions: scale 0 to 100
# windgrass = assay: Test C pre-/postemergence test; assay type: in vivo, Apera spica-venti; conditions: Postemergence; for Plant response rating, Windgrass: scale 0 to 100, 0 no effect, 100 complete control
# canarygrass = assay: Test C postemergence test; assay type: in vivo, Phalaris minor; conditions: for Plant response rating (0 to 100), Canarygrass: 31 g ai/ha; for Plant response rating, Canarygrass: scale 0 to 100, 0 no effect, 100 complete control
# Procedure, shortened: (§3)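 Postemergence sprays of formulated test chemicals on plants 2 to 18 cm tall (1- to 4-leaf stage). Greenhouse hold for 13 to 15 days, then visual rating of each species against untreated controls; dash means no test result.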
# chickweed = assay: Test C postemergence test; assay type: in vivo, Stellaria media; conditions: for Plant response rating (0 to 100), Chickweed: 31 g ai/ha; for Plant response rating, Chickweed: scale 0 to 100, 0 no effect, 100 complete control
# Procedure, shortened: as §3
# winter barley = assay: Test C postemergence test; assay type: in vivo, Hordeum vulgare; conditions: for Plant response rating (0 to 100), Barley: 31 g ai/ha; for Plant response rating, Barley: scale 0 to 100, 0 no effect, 100 complete control
# Procedure, shortened: as §3
compound,measurement,setting,value
Cc1cc[n+]([O-])c(S(=O)(=O)C(Cl)c2c(C(F)(F)F)nn(C)c2Cl)c1 (racemic) [Compound 22],Chickweed plant response rating,"common chickweed; 62 g ai/ha, Preemergence",100
same,Chickweed plant response rating,"common chickweed; 125 g ai/ha, preemergence",100
same,"Plant response rating, Chickweed","common chickweed; Preemergence, 16 g ai/ha",0
same,"Plant response rating, Chickweed","common chickweed; Preemergence, 31 g ai/ha",65
same,Sowthistle plant response rating,"common sowthistle; 62 g ai/ha, Preemergence",90
same,Sowthistle plant response rating,"common sowthistle; 125 g ai/ha, preemergence",100
same,"Plant response rating, Sowthistle","common sowthistle; Preemergence, 31 g ai/ha",90
same,Russian Thistle plant response rating,"Russian thistle; 125 g ai/ha, preemergence",100
same,"Plant response rating, Foxtail, Green",green foxtail; 31 g ai/ha,15
same,"Plant response rating, Foxtail, Green",green foxtail; 62 g ai/ha,40
same,"Plant response rating, Foxtail, Green",green foxtail; 125 g ai/ha,95
same,"Plant response rating, Foxtail, Green",green foxtail; 250 g ai/ha,100
same,"Plant response rating, Sandbur",field sandbur; 31 g ai/ha,15
same,"Plant response rating, Sandbur",field sandbur; 62 g ai/ha,60
same,"Plant response rating, Sandbur",field sandbur; 125 g ai/ha,85
same,"Plant response rating, Sandbur",field sandbur; 250 g ai/ha,100
same,Horseweed plant response rating,"Canada horseweed; 62 g ai/ha, Preemergence",0
same,Horseweed plant response rating,"Canada horseweed; 125 g ai/ha, preemergence",100
same,"Plant response rating, Horseweed","Canada horseweed; Preemergence, 16 g ai/ha",0
same,"Plant response rating, Horseweed","Canada horseweed; Preemergence, 31 g ai/ha",0
same,"Plant response rating, Bromegrass, Downy",downy bromegrass; 31 g ai/ha,0
same,"Plant response rating, Bromegrass, Downy",downy bromegrass; 62 g ai/ha,20
same,"Plant response rating, Bromegrass, Downy",downy bromegrass; 125 g ai/ha,20
same,"Plant response rating, Bromegrass, Downy",downy bromegrass; 250 g ai/ha,35
same,"Plant response rating, Millet",millet; 31 g ai/ha,0
same,"Plant response rating, Millet",millet; 62 g ai/ha,35
same,"Plant response rating, Millet",millet; 125 g ai/ha,60
same,"Plant response rating, Millet",millet; 250 g ai/ha,100
Cc1cc[n+]([O-])c(S(=O)(=O)Cc2c(C(F)(F)F)nn(C)c2OC(F)F)c1 [Compound 2],"Plant response rating, Chickweed","common chickweed; 8 g ai/ha, preemergence",10
same,Chickweed plant response rating,"common chickweed; 62 g ai/ha, Preemergence",100
same,"Plant response rating, Chickweed","common chickweed; Preemergence, 16 g ai/ha",80
same,"Plant response rating, Chickweed","common chickweed; Preemergence, 31 g ai/ha",95
same,"Plant response rating (0 to 100), Windgrass",windgrass; 31 g ai/ha,0
same,"Plant response rating (0 to 100), Windgrass",windgrass; 62 g ai/ha,10
same,"Plant response rating, Windgrass",windgrass; 125 g ai/ha,50
same,"Plant response rating, Windgrass",windgrass; 250 g ai/ha,70
same,"Plant response rating, Sowthistle","common sowthistle; 8 g ai/ha, preemergence",0
same,"Plant response rating, Sowthistle","common sowthistle; 16 g ai/ha, preemergence",0
same,Sowthistle plant response rating,"common sowthistle; 62 g ai/ha, Preemergence",100
same,"Plant response rating, Sowthistle","common sowthistle; Preemergence, 31 g ai/ha",60
same,"Plant response rating, Russian Thistle","Russian thistle; 8 g ai/ha, preemergence",0
same,"Plant response rating, Russian Thistle","Russian thistle; Preemergence, 16 g ai/ha",0
same,"Plant response rating, Russian Thistle","Russian thistle; Preemergence, 31 g ai/ha",0
same,"Plant response rating (0 to 100), Canarygrass",canarygrass,0
same,"Plant response rating, Canarygrass",canarygrass; 62 g ai/ha,0
same,"Plant response rating, Canarygrass",canarygrass; 125 g ai/ha,0
same,"Plant response rating, Canarygrass",canarygrass; 250 g ai/ha,0
same,"Plant response rating (0 to 100), Chickweed",chickweed,0
same,"Plant response rating, Chickweed",chickweed; 62 g ai/ha,0
same,"Plant response rating, Chickweed",chickweed; 125 g ai/ha,5
same,"Plant response rating, Chickweed",chickweed; 250 g ai/ha,80
same,"Plant response rating, Foxtail, Green",green foxtail; 31 g ai/ha,0
same,"Plant response rating, Foxtail, Green",green foxtail; 62 g ai/ha,30
same,"Plant response rating, Foxtail, Green",green foxtail; 125 g ai/ha,55
same,"Plant response rating, Foxtail, Green",green foxtail; 250 g ai/ha,65
same,"Plant response rating, Sandbur",field sandbur; 31 g ai/ha,0
same,"Plant response rating, Sandbur",field sandbur; 62 g ai/ha,0
same,"Plant response rating, Sandbur",field sandbur; 125 g ai/ha,85
same,"Plant response rating, Sandbur",field sandbur; 250 g ai/ha,100
same,"Plant response rating, Bromegrass, Downy",downy bromegrass; 31 g ai/ha,0
same,"Plant response rating, Bromegrass, Downy",downy bromegrass; 62 g ai/ha,20
same,"Plant response rating, Bromegrass, Downy",downy bromegrass; 125 g ai/ha,50
same,"Plant response rating, Bromegrass, Downy",downy bromegrass; 250 g ai/ha,55
same,"Plant response rating, Millet",millet; 31 g ai/ha,0
same,"Plant response rating, Millet",millet; 62 g ai/ha,0
same,"Plant response rating, Millet",millet; 125 g ai/ha,75
same,"Plant response rating, Millet",millet; 250 g ai/ha,100
same,"Plant response rating (0 to 100), Barley",winter barley,0
same,"Plant response rating, Barley",winter barley; 62 g ai/ha,0
same,"Plant response rating, Barley",winter barley; 125 g ai/ha,0
same,"Plant response rating, Barley",winter barley; 250 g ai/ha,0
Cn1nc(C(F)(F)F)c(C[S+]([O-])c2cccc[n+]2[O-])c1OC(F)F (stereo not shown) [Compound 3],"Plant response rating, Chickweed","common chickweed; 8 g ai/ha, preemergence",25
same,Chickweed plant response rating,"common chickweed; 62 g ai/ha, Preemergence",100
same,"Plant response rating, Chickweed","common chickweed; Preemergence, 16 g ai/ha",98
same,"Plant response rating, Chickweed","common chickweed; Preemergence, 31 g ai/ha",100
same,"Plant response rating (0 to 100), Windgrass",windgrass; 31 g ai/ha,0
same,"Plant response rating (0 to 100), Windgrass",windgrass; 62 g ai/ha,0
same,"Plant response rating, Windgrass",windgrass; 125 g ai/ha,20
same,"Plant response rating, Windgrass",windgrass; 250 g ai/ha,70
same,"Plant response rating, Sowthistle","common sowthistle; 8 g ai/ha, preemergence",0
same,"Plant response rating, Sowthistle","common sowthistle; 16 g ai/ha, preemergence",0
same,Sowthistle plant response rating,"common sowthistle; 62 g ai/ha, Preemergence",100
same,"Plant response rating, Sowthistle","common sowthistle; Preemergence, 31 g ai/ha",65
same,"Plant response rating, Russian Thistle","Russian thistle; 8 g ai/ha, preemergence",0
same,Russian Thistle plant response rating,"Russian thistle; 62 g ai/ha, Preemergence",100
same,"Plant response rating, Russian Thistle","Russian thistle; Preemergence, 16 g ai/ha",0
same,"Plant response rating, Russian Thistle","Russian thistle; Preemergence, 31 g ai/ha",35
same,"Plant response rating (0 to 100), Canarygrass",canarygrass,0
same,"Plant response rating, Canarygrass",canarygrass; 62 g ai/ha,0
same,"Plant response rating, Canarygrass",canarygrass; 125 g ai/ha,0
same,"Plant response rating, Canarygrass",canarygrass; 250 g ai/ha,0
same,"Plant response rating (0 to 100), Chickweed",chickweed,10
same,"Plant response rating, Chickweed",chickweed; 62 g ai/ha,70
same,"Plant response rating, Chickweed",chickweed; 125 g ai/ha,85
same,"Plant response rating, Chickweed",chickweed; 250 g ai/ha,95
same,"Plant response rating, Foxtail, Green",green foxtail; 31 g ai/ha,0
same,"Plant response rating, Foxtail, Green",green foxtail; 62 g ai/ha,35
same,"Plant response rating, Foxtail, Green",green foxtail; 125 g ai/ha,60
same,"Plant response rating, Foxtail, Green",green foxtail; 250 g ai/ha,100
same,"Plant response rating, Sandbur",field sandbur; 31 g ai/ha,0
same,"Plant response rating, Sandbur",field sandbur; 62 g ai/ha,35
same,"Plant response rating, Sandbur",field sandbur; 125 g ai/ha,95
same,"Plant response rating, Sandbur",field sandbur; 250 g ai/ha,95
same,"Plant response rating, Bromegrass, Downy",downy bromegrass; 31 g ai/ha,0
same,"Plant response rating, Bromegrass, Downy",downy bromegrass; 62 g ai/ha,45
same,"Plant response rating, Bromegrass, Downy",downy bromegrass; 125 g ai/ha,55
same,"Plant response rating, Bromegrass, Downy",downy bromegrass; 250 g ai/ha,55
same,"Plant response rating, Millet",millet; 31 g ai/ha,0
same,"Plant response rating, Millet",millet; 62 g ai/ha,0
same,"Plant response rating, Millet",millet; 125 g ai/ha,15
same,"Plant response rating, Millet",millet; 250 g ai/ha,90
same,"Plant response rating (0 to 100), Barley",winter barley,0
same,"Plant response rating, Barley",winter barley; 62 g ai/ha,0
same,"Plant response rating, Barley",winter barley; 125 g ai/ha,0
same,"Plant response rating, Barley",winter barley; 250 g ai/ha,0
